According to US7968548B2, “Melanocortin receptor-specific piperazine compounds with diamine groups” (Palatin Technologies, Inc., priority 2005, dated 2011):

Legend:
[1] = molecular target: T1, MC5-R (Homo sapiens, UniProt P33032); experiment: Competitive inhibition binding assay using [I125]-NDP-α-MSH, HEK-293 membranes, recombinant hMC5-R; conditions: for inhibition at 1 µM: 1 μM compound
T1 construct: expressed in transfected cells; host or cells: HEK-293
Description: (§1) A competitive inhibition binding assay was performed using membrane homogenates prepared from HEK-293 cells that express recombinant hMC4-R, hMC3-R, or hMC5-R, and from B-16 mouse melanoma cells (containing endogenous MC1-R). In some instances, HEK-293 cells that express recombinant hMC1-R were employed. In the examples that follow, all MC3-R, MC4-R and MC5-R values are for human recombinant receptors. MC1-R values are for B-16 mouse melanoma cells, unless the heading is “hMC1-R”, in which case the value is for human recombinant MC1-R. Assays were performed in 96 well GF/B Millipore multiscreen filtration plates (MAFB NOB10) pre-coated with 0.5% bovine serum albumin (Fraction V). […] After incubation for 60 minutes at 37° C., the assay mixture was filtered and the membranes washed three times with ice-cold buffer. Filters were dried and counted in a gamma counter for bound radioactivity. […] Maximal specific binding (100%) was defined as the difference in radioactivity (cpm) bound to cell membranes in the absence and presence of 1 μM NDP-α-MSH. […] Each assay was conducted in triplicate and the actual mean values are described, with results less than 0% reported as 0%. Ki values for test compounds were determined using Graph-Pad Prism® curve-fitting software.

[2] = molecular target: MC4-R (Homo sapiens, UniProt P32245); experiment: Competitive inhibition binding assay using [I125]-NDP-α-MSH, HEK-293 membranes, recombinant hMC4-R; set-up: expressed in transfected cells; host or cells: HEK-293; conditions: for inhibition at 1 µM: 1 μM compound
Sequence of MC4-R (P32245 whole entry): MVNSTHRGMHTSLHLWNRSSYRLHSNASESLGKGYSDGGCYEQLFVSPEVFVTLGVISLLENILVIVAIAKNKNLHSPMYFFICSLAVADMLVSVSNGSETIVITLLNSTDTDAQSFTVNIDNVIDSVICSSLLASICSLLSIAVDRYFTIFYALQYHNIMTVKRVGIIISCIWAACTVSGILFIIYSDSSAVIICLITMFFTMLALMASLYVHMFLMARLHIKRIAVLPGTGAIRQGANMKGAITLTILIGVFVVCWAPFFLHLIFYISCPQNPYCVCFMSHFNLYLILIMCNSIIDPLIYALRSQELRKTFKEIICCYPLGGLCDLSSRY
Description: as §1

[3] = molecular target: T2, MC1-R (Mus musculus, UniProt Q01727); experiment: Competitive inhibition binding assay using [I125]-NDP-α-MSH, B-16 mouse melanoma cell membranes; conditions: B-16 mouse melanoma cells; for inhibition at 1 µM: 1 μM compound
T2 construct: from B-16 mouse melanoma cells (containing endogenous MC1-R); endogenous in cells; host or cells: B-16 mouse melanoma cells (membrane homogenates)
T2 sequence (Q01727 whole entry): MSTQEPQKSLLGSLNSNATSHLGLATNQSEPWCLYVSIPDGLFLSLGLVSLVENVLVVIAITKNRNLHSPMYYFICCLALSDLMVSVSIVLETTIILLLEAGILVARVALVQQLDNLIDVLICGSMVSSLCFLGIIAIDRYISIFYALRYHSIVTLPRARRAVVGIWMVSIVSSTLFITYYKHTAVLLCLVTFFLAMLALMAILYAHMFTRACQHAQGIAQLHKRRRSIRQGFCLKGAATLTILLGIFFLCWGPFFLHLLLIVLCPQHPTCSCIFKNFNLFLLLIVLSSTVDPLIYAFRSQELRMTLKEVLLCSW
Description: as §1

[4] = molecular target: T3, MC3-R (Homo sapiens, UniProt P41968); experiment: Competitive inhibition binding assay using [I125]-NDP-α-MSH, HEK-293 membranes, recombinant hMC3-R; conditions: for inhibition at 1 µM: 1 μM compound
T3 construct: expressed in transfected cells; host or cells: HEK-293
T3 sequence (P41968 whole entry): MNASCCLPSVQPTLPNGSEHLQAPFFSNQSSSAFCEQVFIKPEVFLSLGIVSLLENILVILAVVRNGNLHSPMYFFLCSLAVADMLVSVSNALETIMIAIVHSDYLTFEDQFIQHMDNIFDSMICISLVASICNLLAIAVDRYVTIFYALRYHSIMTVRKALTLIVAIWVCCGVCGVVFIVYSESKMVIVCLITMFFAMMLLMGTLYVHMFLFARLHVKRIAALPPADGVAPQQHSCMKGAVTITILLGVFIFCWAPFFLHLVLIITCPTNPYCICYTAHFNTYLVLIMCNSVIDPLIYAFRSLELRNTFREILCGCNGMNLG
Description: as §1

[5] = Mouse model IN feeding studies (body weight); format: in vivo; conditions: 20 hours
Description: Food intake and body weight after IN and IP dosing. Changes in food intake and body weight were evaluated for selected compounds. Male C57BL/6 mice were obtained from Jackson labs (Bar Harbor, Me.). Animals were individually housed in conventional plexiglass hanging cages and maintained on a controlled 12 hour on/off light cycle. Water and pelleted (Harlan Teklad 2018 18% Protein Rodent Diet) food was provided ad libitum. The mice were dosed IP (by intraperitoneal injection) after a 24 hour fast or IN (by intranasal administration) with vehicle or selected compounds (0.1-3 mg/kg, and in some cases up to 10 mg/kg). All animals were dosed once a day (or up to four consecutive days) at the start of the “lights off” period. The changes in food intake for the 4 hour and 20 hour period after dosing relative to control animals administered vehicle were determined. Body weights were determine 4 hours prior to dosing and 20 hours after dosing, and the change in body weight relative to control animals administered vehicle were determined.

[6] = molecular target: T4, hMC1-R (Homo sapiens, UniProt Q01726); experiment: Competitive inhibition binding assay using [I125]-NDP-α-MSH, HEK-293 membranes, recombinant hMC1-R; conditions: human recombinant MC1-R; for inhibition at 1 µM: 1 μM compound
T4 construct: expressed in transfected cells; host or cells: HEK-293
T4 sequence (Q01726 whole entry): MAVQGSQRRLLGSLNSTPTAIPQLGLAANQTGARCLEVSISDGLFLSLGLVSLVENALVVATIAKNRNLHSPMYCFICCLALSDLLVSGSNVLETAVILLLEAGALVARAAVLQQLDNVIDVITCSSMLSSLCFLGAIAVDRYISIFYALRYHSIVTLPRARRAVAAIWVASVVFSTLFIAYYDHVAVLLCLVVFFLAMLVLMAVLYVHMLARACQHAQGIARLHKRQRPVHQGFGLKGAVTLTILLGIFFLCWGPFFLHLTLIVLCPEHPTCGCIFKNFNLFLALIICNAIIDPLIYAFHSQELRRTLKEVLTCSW
Description: as §1

T1 sequence (P33032 whole entry): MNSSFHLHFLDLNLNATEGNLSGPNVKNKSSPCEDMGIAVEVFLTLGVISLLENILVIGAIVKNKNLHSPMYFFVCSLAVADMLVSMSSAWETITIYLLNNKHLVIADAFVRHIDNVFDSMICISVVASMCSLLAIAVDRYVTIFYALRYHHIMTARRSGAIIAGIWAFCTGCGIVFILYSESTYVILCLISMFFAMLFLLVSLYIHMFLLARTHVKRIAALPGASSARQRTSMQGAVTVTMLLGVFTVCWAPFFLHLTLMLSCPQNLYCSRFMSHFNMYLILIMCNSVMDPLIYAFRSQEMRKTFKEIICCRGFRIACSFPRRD

Row | Ki [1] | inhibition at 1 µM [1] | Ki [2] | inhibition at 1 µM [2] | Ki [4] | inhibition at 1 µM [4] | inhibition at 1 µM [6] | Ki [6] | SMILES | inhibition at 1 µM [3] | Ki [3] | average decrease in body weight compared to control animals ([5]; 0.1 mg/kg) | average decrease in body weight compared to control animals ([5]; 0.3 mg/kg) | average decrease in body weight compared to control animals ([5]; 1 mg/kg)
1 | 38 nM | 98% | 255 nM | 88% | 535 nM | 47% | – | – | Cc1ccc(C[C@@H](N)CN2C[C@@H](C)N(C(=O)Cc3ccc4ccccc4c3)C[C@@H]2CCCNC2CCCCC2N)c(C)c1 (stereo partly drawn) [Example 6, 1-{(2R,5S)-5-[3-(2-Amino-cyclohexylamino)-propyl]-4-[(R)-2-amino-3-(2,4-dimethyl-phenyl)-propyl]-2-methyl-piperazin-1-yl}-2-naphthalen-2-yl-ethanone] | 33% | 580 nM | – | – | –
2 | – | 44% | – | 56% | – | 0% | – | – | Cc1ccc(C[C@H](CN2C[C@@H](C)N(C(=O)Cc3ccc4ccccc4c3)C[C@@H]2CCCN(C)C2CCN(C)C2)N(C)C)c(C)c1 (stereo partly drawn) [Example 7, 1-((2R,5S)-4-[(R)-2-Dimethylamino-3-(2,4-dimethyl-phenyl)-propyl]-2-methyl-5-{3-[methyl-(1-methyl-pyrrolidin-3-yl)-amino]-propyl}-piperazin-1-yl)-2-aphthalen-2-yl-ethanone] | 4% | – | – | – | –
3 | – | 55% | 44 nM | 89% | 574 nM | 41% | 23% | 309 nM | CC(C)C[C@@H]1CN(C(=O)[C@H](N)Cc2ccc(Cl)cc2Cl)[C@@H](CCCNCCN)CN1C(=O)[C@H](N)Cc1ccc(Cl)cc1Cl [Example 12, (R)-2-Amino-1-{(2R,5S)-4-[(R)-2-amino-3-(2,4-dichloro-phenyl)-propionyl]-5-[3-(2-amino-ethylamino)-propyl]-2-isobutyl-piperazin-1-yl}-3-(2,4-dichloro-phenyl)-propan-1-one] | – | – | 0.7% | 3.1% | –
4 | – | 57% | 13 nM | 96% | 127 nM | 79% | 40% | 135 nM | CC(C)C[C@@H]1CN(C(=O)[C@H](N)Cc2ccc3ccccc3c2)[C@@H](CCCNCCN)CN1C(=O)[C@H](N)Cc1ccc2ccccc2c1 [Example 13, (R)-2-Amino-1-[(2R,5S)-5-[3-(2-amino-ethylamino)-propyl]-4-((R)-2-amino-3-naphthalen-2-yl-propionyl)-2-isobutyl-piperazin-1-yl]-3-naphthalen-2-yl-propan-1-one] | – | – | 1% | 3% | 3.2%
5 | 253 nM | 49% | 9 nM | 99% | 321 nM | 62% | 68% | 215 nM | CC(C)C[C@@H]1CN(C(=O)[C@H](N)Cc2ccc3ccccc3c2)[C@@H](CCCCNCCN)CN1C(=O)[C@H](N)Cc1ccc2ccccc2c1 [Example 20, (R)-2-Amino-1-[(2R,5S)-5[4-(2-amino-ethylamino)-butyl]-4-((R)-2-amino-3-naphthalen-2-yl-propionyl)-2-isobutyl-piperazin-1-yl]-3-naphthalen-2-yl-propan-1-one] | – | – | 1.2% | 3% | –
6 | 179 nM | – | 4 nM | – | 69 nM | – | – | 116 nM | CC(C)C[C@@H]1CN(C(=O)[C@H](N)Cc2ccc(Cl)c(Cl)c2)[C@@H](CCCCNCCN)CN1C(=O)[C@H](N)Cc1ccc(Cl)c(Cl)c1 [Example 22, (R)-2-Amino-1-{(2R,5S)-4-[(R)-2-amino-3-(3,4-dichloro-phenyl)-propionyl]-5-[4-(2-amino-ethylamino)-butyl]-2-isobutyl-piperazin-1-yl}-3-(3,4-dichloro-phenyl)-propan-1-one] | – | – | 0.6% | 4.9% | –
7 | 103 nM | – | 20 nM | – | 435 nM | – | – | 153 nM | NCCNCCCC[C@H]1CN(C(=O)[C@H](N)Cc2ccc3ccccc3c2)[C@H](CC2CCCCC2)CN1C(=O)[C@H](N)Cc1ccc2ccccc2c1 [Example 23, (R)-2-Amino-1-[(2R,5S)-5-[4-(2-amino-ethylamino)-butyl]-4-((R)-2-amino-3-naphthalen-2-yl-propionyl)-2-cyclohexylmethyl-piperazin-1-yl]-3-naphthalen-2-yl-propan-1-one] | – | – | 1.6% | 2.6% | –
8 | – | 84% | – | 91% | – | 65% | 37% | – | CC(C)C[C@@H]1CN(C[C@H](N)Cc2ccc(Cl)cc2Cl)[C@@H](CCCNCCCCN)CN1C(=O)Cc1ccc2ccccc2c1 [Example 30, 1-{(2R,5S)-5-[3-(4-Amino-butylamino)-propyl]-4-[(R)-2-amino-3-(2,4-dichloro-phenyl)-propyl]-2-isobutyl-piperazin-1-yl}-2-naphthalen-2-yl-ethanone] | – | – | – | – | –
9 | – | 87% | – | 91% | – | 59% | 36% | – | CC(C)C[C@@H]1CN(C[C@H](N)Cc2ccc(Cl)cc2Cl)[C@@H](CCCNCCCCCN)CN1C(=O)Cc1ccc2ccccc2c1 [Example 31, 1-{(2R,5S)-4-[(R)-2-Amino-3-(2,4-dichloro-phenyl)-propyl]-5-[3-(5-amino-pentylamino)-propyl]-2-isobutyl-piperazin-1-yl}-2-naphthalen-2-yl-ethanone] | – | – | – | – | –
10 | – | 65% | – | 91% | – | 43% | 25% | – | CC(C)C[C@@H]1CN(C[C@@H](Cc2ccc(Cl)cc2Cl)N(C)C)[C@@H](CCCN(C)CCN)CN1C(=O)Cc1ccc2ccccc2c1 [Example 32, 1-{(2R,5S)-5-{3-[(2-Amino-ethyl)-methyl-amino]-propyl}-4-[(R)-3-(2,4-dichloro-phenyl)-2-dimethylamino-propyl]-2-isobutyl-piperazin-1-yl}-2-naphthalen-2-yl-ethanone] | – | – | – | – | –

Row | SMILES | Ki [1] | inhibition at 1 µM [1] | Ki [2] | inhibition at 1 µM [2] | Ki [4] | inhibition at 1 µM [4] | inhibition at 1 µM [6] | Ki [6] | inhibition at 1 µM [3] | Ki [3] | average decrease in body weight compared to control animals ([5]; 0.1 mg/kg) | average decrease in body weight compared to control animals ([5]; 0.3 mg/kg) | average decrease in body weight compared to control animals ([5]; 1 mg/kg)
11 | Cc1ccc(C[C@@H](N)CN2C[C@@H](C)N(C(=O)Cc3ccc4ccccc4c3)C[C@@H]2CCCNCCN)c(C)c1 [Example 3] | 20 nM | 94% | 160 nM | 92% | 320 nM | 82% | – | – | 41% | 660 nM | – | – | –
12 | Cc1ccc(C[C@@H](N)CN2C[C@@H](C)N(C(=O)Cc3ccc4ccccc4c3)C[C@@H]2CCCN2CCNCC2)c(C)c1 [Example 4] | – | 97% | – | 55% | – | 43% | – | – | 12% | – | – | – | –
13 | Cc1ccc(C[C@@H](N)CN2C[C@@H](C)N(C(=O)Cc3ccc4ccccc4c3)C[C@@H]2CCCNC2CCNC2)c(C)c1 (stereo partly drawn) [Example 5, 1-{(2R,5S)-4-[(R)-2-Amino-3-(2,4-dimethyl-phenyl)-propyl]-2-methyl-5-[3-(pyrrolidin-3-ylamino)-propyl]-piperazin-1-yl}-2-naphthalen-2-yl-ethanone] | 31 nM | 96% | 387 nM | 81% | 395 nM | 75% | – | – | 41% | 685 nM | – | – | –
